US8449898B2 (priority 2007, dated 2013)
Where two headings read alike, the source gives them in different places.

Legend:
[1] = test system: Pseudoperonospora cubensis (the causal agent of cucumber downy mildew); experiment: Test B: cucumber downy mildew, preventive spray on cucumber seedlings; type: in vivo; conditions: for CDM Obsd (disease control rating): Table B
[2] = test system: Phytophthora infestans (the causal agent of tomato late blight); experiment: whole plant or invertebrate; type: in vivo; conditions: for TLB Obsd (disease control rating): Table B
[3] = Table D, component (b) alone at 2 ppm
[4] = Table D, component (b) alone at 10 ppm
[5] = Table D, component (b) alone at 40 ppm
[6] = Table D, component (b) alone at 200 ppm
[7] = Table D, component (b) alone at 500 ppm
[8] = component (b) alone 2 ppm (Compound 1 0 ppm)
[9] = component (b) alone 10 ppm (Compound 1 0 ppm)
[10] = component (b) alone 40 ppm (Compound 1 0 ppm)
[11] = Pseudoperonospora cubensis, Compound 214 alone, read-out: CDM Obsd
[12] = Pseudoperonospora cubensis, Compound 214 alone, read-out: CDM Obsd (observed effect, cucumber downy mildew)

C[C@@]1(c2ccc(Oc3ccccc3)cc2)OC(=O)N(Nc2ccccc2)C1=O (racemic) [famoxadone]
pest or weed control at 0.4 ppm ([1]; Pseudoperonospora cubensis, Table C, component (b) alone 0.4 ppm, read-out: CDM Obsd (disease control rating)): 47%
pest or weed control at 2 ppm ([1]; Pseudoperonospora cubensis, Table C, component (b) alone 2 ppm, read-out: CDM Obsd (disease control rating)): 63%
pest or weed control at 10 ppm ([1]; Pseudoperonospora cubensis, Table C, component (b) alone 10 ppm, read-out: CDM Obsd (disease control rating)): 95%
pest or weed control at 40 ppm ([1]; Pseudoperonospora cubensis, Table C, component (b) alone 40 ppm, read-out: CDM Obsd (disease control rating)): 100%
pest or weed control at 200 ppm ([1]; Pseudoperonospora cubensis, Table C, component (b) alone 200 ppm, read-out: CDM Obsd (disease control rating)): 100%
pest or weed control at 0.4 µg/mL ([1]; Pseudoperonospora cubensis, component (b) alone 0.4 ppm (Compound 1 0 ppm), read-out: CDM Obsd): 47%
pest or weed control at 2 µg/mL ([1]; Pseudoperonospora cubensis, component (b) alone 2 ppm (Compound 1 0 ppm), read-out: CDM Obsd): 58%
pest or weed control at 10 µg/mL ([1]; Pseudoperonospora cubensis, component (b) alone 10 ppm (Compound 1 0 ppm), read-out: CDM Obsd): 87%
pest or weed control at 40 µg/mL ([1]; Pseudoperonospora cubensis, component (b) alone 40 ppm (Compound 1 0 ppm), read-out: CDM Obsd): 100%
pest or weed control at 200 µg/mL ([1]; Pseudoperonospora cubensis, component (b) alone 200 ppm (Compound 1 0 ppm), read-out: CDM Obsd): 100%
pest or weed control at 0.04 ppm ([1]; Pseudoperonospora cubensis, component (b) alone, 0.04 ppm, read-out: CDM Obsd): 100%
pest or weed control at 2 ppm ([1]; Pseudoperonospora cubensis, component (b) alone, 2 ppm, read-out: CDM Obsd): 21%
pest or weed control at 10 ppm ([1]; Pseudoperonospora cubensis, component (b) alone, 10 ppm, read-out: CDM Obsd): 72%
pest or weed control at 40 ppm ([1]; Pseudoperonospora cubensis, component (b) alone, 40 ppm, read-out: CDM Obsd): 100%
pest or weed control at 200 ppm ([1]; Pseudoperonospora cubensis, component (b) alone, 200 ppm, read-out: CDM Obsd): 100%
pest or weed control at 0.4 ppm ([2]; Phytophthora infestans, read-out: TLB Obsd (disease control rating), Table C, component (b) alone 0.4 ppm): 17%
pest or weed control at 2 ppm ([2]; Phytophthora infestans, read-out: TLB Obsd (disease control rating), Table C, component (b) alone 2 ppm): 26%
pest or weed control at 10 ppm ([2]; Phytophthora infestans, read-out: TLB Obsd (disease control rating), Table C, component (b) alone 10 ppm): 67%
pest or weed control at 40 ppm ([2]; Phytophthora infestans, read-out: TLB Obsd (disease control rating), Table C, component (b) alone 40 ppm): 53%
pest or weed control at 200 ppm ([2]; Phytophthora infestans, read-out: TLB Obsd (disease control rating), Table C, component (b) alone 200 ppm): 66%
pest or weed control at 0.04 ppm ([2]; Phytophthora infestans, read-out: TLB Obsd, component (b) alone, 0.04 ppm): 100%
pest or weed control at 2 ppm ([2]; Phytophthora infestans, read-out: TLB Obsd, component (b) alone, 2 ppm): 32%
pest or weed control at 10 ppm ([2]; Phytophthora infestans, read-out: TLB Obsd, component (b) alone, 10 ppm): 93%
pest or weed control at 40 ppm ([2]; Phytophthora infestans, read-out: TLB Obsd, component (b) alone, 40 ppm): 98%
pest or weed control at 200 ppm ([2]; Phytophthora infestans, read-out: TLB Obsd, component (b) alone, 200 ppm): 100%

CC1CCN(c2c(-c3c(F)cc(F)cc3F)c(Cl)nc3ncnn23)CC1 [BAS600, 5-chloro-6-(2,4,6-trifluorophenyl)-7-(4-methylpiperidin-1-yl)[1,2,4]triazolo[1,5-α]pyrimidine]
CDM Obsd [1, 3]: 47%
CDM Obsd [1, 4]: 99%
CDM Obsd [1, 5]: 100%
CDM Obsd [1, 6]: 100%
CDM Obsd [1, 7]: 100%
CDM Obsd [1, 8]: 0%
CDM Obsd [1, 9]: 72%
CDM Obsd [1, 10]: 100%
CDM Obsd ([1]; component (b) alone 200 ppm (Compound 1 0 ppm)): 100%
CDM Obsd ([1]; component (b) alone, 2 ppm): 0%
CDM Obsd ([1]; component (b) alone, 10 ppm): 99%
CDM Obsd ([1]; component (b) alone, 40 ppm): 100%
CDM Obsd ([1]; component (b) alone, 200 ppm): 100%
CDM Obsd ([1]; component (b) alone, 500 ppm): 100%
TLB Obsd [2, 3]: 26%
TLB Obsd [2, 4]: 6%
TLB Obsd [2, 5]: 56%
TLB Obsd [2, 6]: 20%
TLB Obsd [2, 7]: 12%
TLB Obsd ([2]; component (b) alone, 2 ppm): 7%
TLB Obsd ([2]; component (b) alone, 10 ppm): 0%
TLB Obsd ([2]; component (b) alone, 40 ppm): 15%
TLB Obsd ([2]; component (b) alone, 200 ppm): 30%
TLB Obsd ([2]; component (b) alone, 500 ppm): 15%

Cc1cc(C(F)(F)F)nn1CC(=O)N1CCC(c2nc(C3=NO[C@@H](c4c(F)cccc4F)C3)cs2)CC1 [Compound 214, 1-[4-[4-[(5R)-5-(2,6-difluorophenyl)-4,5-dihydro-3-isoxazolyl]-2-thiazolyl]-1-piperidinyl]-2-[5-methyl-3-(trifluoromethyl)-1H-pyrazol-1-yl]ethanone]
pest or weed control at 0.001 ppm ([1]; Pseudoperonospora cubensis, Compound 214 alone, 0.001 ppm, read-out: CDM Obsd (observed effect, cucumber downy mildew)): 16%
pest or weed control at 0.01 ppm [1, 11]: 88%
pest or weed control at 0.01 ppm [1, 12]: 83%
pest or weed control at 0.1 ppm [1, 11]: 100%
pest or weed control at 0.1 ppm [1, 12]: 100%
pest or weed control at 0.001 ppm ([2]; Phytophthora infestans, read-out: TLB Obsd (observed effect, tomato late blight), Compound 214 alone, 0.001 ppm): 44%
pest or weed control at 0.01 ppm ([2]; Phytophthora infestans, read-out: TLB Obsd (observed effect, tomato late blight), Compound 214 alone, 0.01 ppm): 98%
pest or weed control at 0.1 ppm ([2]; Phytophthora infestans, read-out: TLB Obsd (observed effect, tomato late blight), Compound 214 alone, 0.1 ppm): 100%
pest or weed control at 0.001 ppm ([2]; Phytophthora infestans, read-out: TLB Obsd, Compound 214 alone, 0.001 ppm): 22%
pest or weed control at 0.01 ppm ([2]; Phytophthora infestans, read-out: TLB Obsd, Compound 214 alone, 0.01 ppm): 98%
pest or weed control at 0.1 ppm ([2]; Phytophthora infestans, read-out: TLB Obsd, Compound 214 alone, 0.1 ppm): 100%

CO/C=C(/C(=O)OC)c1ccccc1Oc1cc(Oc2ccccc2C#N)ncn1 [azoxystrobin]
CDM Obsd (disease control rating) ([1]; component (b) alone 0.08 ppm): 64%
CDM Obsd (disease control rating) ([1]; component (b) alone 0.4 ppm): 80%
CDM Obsd (disease control rating) ([1]; component (b) alone 2 ppm): 100%
CDM Obsd (disease control rating) ([1]; component (b) alone 10 ppm): 100%
CDM Obsd (disease control rating) ([1]; component (b) alone 40 ppm): 100%
CDM Obsd ([1]; component (b) alone 0.08 ppm (Compound 1 0 ppm)): 26%
CDM Obsd ([1]; component (b) alone 0.4 ppm (Compound 1 0 ppm)): 40%
CDM Obsd [1, 8]: 100%
CDM Obsd [1, 9]: 100%
CDM Obsd [1, 10]: 100%
CDM Obsd (observed effect, cucumber downy mildew) ([1]; component (b) alone, 0.4 ppm): 0
CDM Obsd (observed effect, cucumber downy mildew) ([1]; component (b) alone, 2 ppm): 70
CDM Obsd (observed effect, cucumber downy mildew) ([1]; component (b) alone, 10 ppm): 100
CDM Obsd (observed effect, cucumber downy mildew) ([1]; component (b) alone, 40 ppm): 100
TLB Obsd (disease control rating) ([2]; component (b) alone 0.08 ppm): 0%
TLB Obsd (disease control rating) ([2]; component (b) alone 0.4 ppm): 16%
TLB Obsd (disease control rating) ([2]; component (b) alone 2 ppm): 26%
TLB Obsd (disease control rating) ([2]; component (b) alone 10 ppm): 58%
TLB Obsd (disease control rating) ([2]; component (b) alone 40 ppm): 99%
TLB Obsd (observed effect, tomato late blight) ([2]; component (b) alone, 0.4 ppm): 29
TLB Obsd (observed effect, tomato late blight) ([2]; component (b) alone, 2 ppm): 56
TLB Obsd (observed effect, tomato late blight) ([2]; component (b) alone, 10 ppm): 90
TLB Obsd (observed effect, tomato late blight) ([2]; component (b) alone, 40 ppm): 100

CC(C)[C@H](NC(=O)O)C(=O)N[C@H](C)c1nc2ccc(F)cc2s1 [benthiavalicarb]
CDM Obsd (observed effect, cucumber downy mildew) ([1]; component (b) alone, 0.08 ppm): 0
CDM Obsd (observed effect, cucumber downy mildew) ([1]; component (b) alone, 0.4 ppm): 75
CDM Obsd (observed effect, cucumber downy mildew) ([1]; component (b) alone, 2 ppm): 100
CDM Obsd (observed effect, cucumber downy mildew) ([1]; component (b) alone, 10 ppm): 100
CDM Obsd (observed effect, cucumber downy mildew) ([1]; component (b) alone, 40 ppm): 100
TLB Obsd (observed effect, tomato late blight) ([2]; component (b) alone, 0.08 ppm): 21
TLB Obsd (observed effect, tomato late blight) ([2]; component (b) alone, 0.4 ppm): 82
TLB Obsd (observed effect, tomato late blight) ([2]; component (b) alone, 2 ppm): 100
TLB Obsd (observed effect, tomato late blight) ([2]; component (b) alone, 10 ppm): 100
TLB Obsd (observed effect, tomato late blight) ([2]; component (b) alone, 40 ppm): 100
